Measurements: article PMC10578927, “An unconventional gatekeeper mutation sensitizes inositol hexakisphosphate kinases to an allosteric inhibitor” (eLife, 2023)
Where two headings read alike, the source gives them in different places.

Assays:
IP6K1^L210V = target: T1, IP6K1^L210V (Homo sapiens, UniProt Q92551, L210V); experiment: High-throughput screen, reverse kinase reaction (5PP-InsP5 + ADP), Kinase-Glo luminescence; type: biochemical
T1 construct: made in house; host or cells: E. coli Arctic Express
T1 sequence (Q92551 whole entry L210V): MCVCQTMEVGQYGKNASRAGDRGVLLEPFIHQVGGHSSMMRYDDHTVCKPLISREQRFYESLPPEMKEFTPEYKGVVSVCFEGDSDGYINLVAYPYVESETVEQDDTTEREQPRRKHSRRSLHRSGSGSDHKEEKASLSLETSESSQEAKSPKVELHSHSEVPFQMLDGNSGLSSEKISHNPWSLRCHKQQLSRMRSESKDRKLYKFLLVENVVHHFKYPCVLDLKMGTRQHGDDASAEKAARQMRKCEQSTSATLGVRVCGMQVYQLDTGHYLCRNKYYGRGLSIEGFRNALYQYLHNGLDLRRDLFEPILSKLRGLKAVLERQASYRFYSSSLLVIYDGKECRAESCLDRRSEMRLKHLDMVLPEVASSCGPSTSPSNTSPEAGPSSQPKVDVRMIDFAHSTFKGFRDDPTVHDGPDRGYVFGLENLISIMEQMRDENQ
From the text: Although the NMR assay described above provides direct product detection and the ability to distinguish the PP-InsP isomers ([Harmel et al., 2019]), it is inherently slow and thus not compatible with a high-throughput screen. The use of luminescence-based readouts of ATP consumption to measure IP6K activity is error-prone due to the kinase’s unusually low affinity for ATP, the sensitivity to the ATP/ADP ratio, and its inherent ATPase activity ([Wundenberg et al., 2014]; [Voglmaier et al., 1996]). Nevertheless, we were able to take advantage of these properties by examining the reverse reaction of IP6K1 with the Kinase-Glo assay, where 5PP-InsP5 and ADP are converted to InsP6 and ATP (Figure 3a).
The following solutions were prepared as 4× stock solutions: kinase buffer (HEPES pH 7.4, NaCl, BSA, MgCl2, Tween-20, DTT, and IP6K1^L210V), DMSO/inhibitor, ADP, and 5PP-InsP5. Final concentrations after optimization were 1 mM ADP, 20 mM HEPES, 50 mM NaCl, 0.2 mg/ml BSA, 2 mM MgCl2, 0.05% Tween-20, 1 mM DTT, 250 nM IP6K1^L210V, and 50 μM 5PP-InsP5. The reactions were carried out in 384-well plates following this procedure. 5 µl 4× kinase buffer (buffer only for no kinase controls), 5 µl 4× DMSO or inhibitor and 5 µl 4× ADP solution were subsequently added to all wells. After 10 min equilibration, 5 μl 4× 5PP-InsP5 were added to start the reaction (milli-Q water for negative controls). After 3 hr at room temperature, 20 µl of Promega Kinase-Glo Plus reagent were added and the luminescence read out with a Tecan Infinite M Plex reader using 100-ms exposure time after 10 min of equilibration.
ADP was prepared in a 2× stock solution in milli-Q water and the pH adjusted to 7.0. The following solutions were prepared as 4× stock solutions: kinase buffer (HEPES pH 7.4, NaCl, BSA, MgCl2, Tween-20, DTT, and IP6K1^L210V) and 5PP-InsP5. Final concentrations were 1 mM ADP, 20 mM HEPES, 50 mM NaCl, 0.2 mg/ml BSA, 2 mM MgCl2, 0.05% Tween-20, 1 mM DTT, 250 nM IP6K1^L210V, and 50 µM 5PP-InsP5. The reactions were carried out in 384-well plates following this procedure. 10 µl 2× ADP solution were added to all wells, then 0.2 µl DMSO or compound (1 mM in DMSO) were added followed by the addition of 5 µl 4× kinase buffer. For dose–response curves, compounds were added in serial dilution (twofold serial dilutions in DMSO across multiple plates prior to compound transfer to assay plates, 9 concentrations in total). After 10 min equilibration, 5 µl 4× 5PP-InsP5 were added to start the reaction (milli-Q water for negative controls). After 3 hr at room temperature, 20 µl of Promega Kinase-Glo Plus reagent were added and the luminescence read out with a Tecan Infinite M Plex or Perkin Elmer EnVision reader using 100ms exposure time after 10 min of equilibration. In the counter screen, dose–response curves were measured in the absence of kinase and presence of 50 µM ATP.

HCT116 cells = experiment: Reverse transcription qPCR of 45S pre-rRNA transcript levels; type: cell-based; settings: HCT116 cells treated 5 hr, RT-qPCR, preliminary experiment
Experimental: Total RNA was extracted using the RNeasy kit from QIAGEN. cDNA was generated using Thermo Fisher Scientific SuperScript III Reverse Transcriptase and 2 µg RNA following the vendor’s protocol. […] The cDNA was diluted 10-fold before conducting qPCR using SYBR Green PCR Master Mix and a StepOnePlus RT PCR System. The difference in transcript levels was calculated using the ΔΔct method and technical triplicates.

IP6K2^wt = target: T2, IP6K2^wt (Homo sapiens, UniProt Q9UHH9); experiment: NMR activity assay, [13C6]-InsP6 to 5PP-InsP5; type: biochemical
T2 construct: made in house; host or cells: E. coli Arctic Express
T2 sequence (Q9UHH9 1-426): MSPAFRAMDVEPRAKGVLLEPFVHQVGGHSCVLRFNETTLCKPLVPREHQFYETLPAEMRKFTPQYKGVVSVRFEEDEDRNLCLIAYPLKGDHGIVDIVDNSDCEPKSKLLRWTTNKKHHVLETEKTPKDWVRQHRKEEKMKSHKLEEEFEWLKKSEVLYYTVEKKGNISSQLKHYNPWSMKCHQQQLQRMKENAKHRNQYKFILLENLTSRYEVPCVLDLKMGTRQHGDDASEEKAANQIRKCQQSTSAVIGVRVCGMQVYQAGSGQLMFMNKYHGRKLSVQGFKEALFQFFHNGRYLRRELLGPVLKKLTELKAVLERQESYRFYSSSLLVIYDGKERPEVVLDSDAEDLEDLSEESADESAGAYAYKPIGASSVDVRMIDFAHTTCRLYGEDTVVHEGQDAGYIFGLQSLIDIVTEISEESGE
Experimental: The NMR assay for IP6K activity was performed similarly as described before ([Harmel et al., 2019]) with slight alterations. Enzyme assays were performed in D2O in a total volume of 150 µl containing 20 mM 4-(2-hydroxyethyl)-1-piperazineethanesulfonic acid (HEPES) pH* 6.8, 50 mM NaCl, 6 mM MgCl2, 1 mM ATP, 0.2 mg/ml BSA, 1 mM DTT, 5 mM creatine phosphate and 1 U/ml creatine kinase (ATP-regenerating system) and 50 nM kinase if not otherwise stated. HEPES, NaCl, and BSA were prepared as buffer A and DTT and creatine phosphate as buffer B in D2O and were adjusted to pH* 6.8, respectively. If applicable, inhibitor was added as a DMSO-d6 stock in a twofold dilution series at a final DMSO concentration of 1% if not otherwise mentioned. Otherwise, DMSO-d6 was added to the same percentage. The samples were equilibrated at 37°C for 3 min and the reaction initiated by adding 100 µM [^13C6]-InsP6.

O=C(O)c1ccc2c(c1)C(=O)N(c1ccc(-c3nc4ccc(N5C(=O)c6ccc(C(=O)O)cc6C5=O)cc4[nH]3)cc1)C2=O [FMP-201300]
IC50 (IP6K1^L210V; Kinase-Glo, reverse reaction, dose-dependent reconfirmation): 1600 nM
Z-score (IP6K1^L210V; primary screen, IP6K1^L210V): -24.0
%Activity (IP6K1^L210V; primary screen, residual activity of IP6K1^L210V): 12.5%
reduction of ribosomal RNA synthesis (45S pre-rRNA transcript levels) (HCT116 cells): able to recapitulate this recently reported phenotype
IC50 (IP6K2^wt): 2140 nM
IC50 (IP6K2^wt; Figure 4b): 2140 nM
